Measured values from US20100063046A1, “TETRACYCLIC IMIDAZOLE ANALOGS” (priority 2006, published 2010).

B1: 8762NT: DNA oligonucleotide from human rDNA non-template strand, CGGAGGGCGCGCGGGTCGGGGCGGCGGCGGCGGCGGCGGTGGCGGCGGCGGCGGGGGCGGCGGG (nucleic acid)
DNA: CGGAGGGCGCGCGGGTCGGGGCGGCGGCGGCGGCGGCGGTGGCGGCGGCGGCGGGGGCGGCGGG
modifications: chemistry not given here

Each molecule was assayed against T1, nucleolin (Homo sapiens, UniProt P19338) (assay: Nucleolin/nucleic acid ligand interaction assay (gel retardation)). Conditions: relative affinity of each nucleic acid ligand for recombinant nucleolin (MBP fusion, ~250 nM); 32P-labeled ligand; 6% DNA retardation gel.
T1 construct: without the N-terminal acidic stretches domain
T1 sequence (P19338 284-710 limits assumed): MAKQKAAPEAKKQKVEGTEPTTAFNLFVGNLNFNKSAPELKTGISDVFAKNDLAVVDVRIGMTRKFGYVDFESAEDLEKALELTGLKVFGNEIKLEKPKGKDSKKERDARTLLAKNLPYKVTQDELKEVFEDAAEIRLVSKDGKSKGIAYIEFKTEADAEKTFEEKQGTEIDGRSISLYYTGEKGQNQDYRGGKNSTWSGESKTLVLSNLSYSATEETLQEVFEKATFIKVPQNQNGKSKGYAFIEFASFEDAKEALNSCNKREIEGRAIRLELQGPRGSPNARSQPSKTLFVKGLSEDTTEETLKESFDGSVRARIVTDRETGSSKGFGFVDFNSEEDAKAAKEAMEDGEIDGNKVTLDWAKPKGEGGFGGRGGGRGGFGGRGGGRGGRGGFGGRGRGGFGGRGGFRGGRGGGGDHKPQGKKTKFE
Assay type: binding
Design: key: A “+” represents the weakest nucleolin affinity; a “++++” represents the strongest nucleolin affinity
Method: The following assays can be used to assess the effects of compounds on interactions between nucleolin and nucleic acid ligands capable of forming quadruplex (QP) and hairpin (HP) secondary structures. Nucleic acid ligands tested were a cMyc QP DNA having nucleotide sequence 5′-[…]-3′ and a HP pre-rRNA region to which nucleolin binds, having the sequence 5′-[…]-3′. In the assays, recombinant nucleolin (˜250 nM), which has been fused to maltose binding protein, and has the sequence under accession number NM_005381 without the N-terminal acidic stretches domain, is incubated with each of the two ^32P-labeled nucleic acid ligands (10 or 250 nM). Nucleolin and the nucleic acid ligand are incubated in the presence or absence of a test compound 7 in an incubation buffer (12.5 mM Tris, pH 7.6, 60 mM KCl, 1 mM MgCl2, 0.1 mM EDTA, 1 mM DTT, 5% glycerol, 0.1 mg/ml BSA) for 30 minutes at room temperature.
The resulting complexes are separated on a 6% DNA retardation gel using 0.5×TBE with 20 mM KCl as a running buffer. The assay also can be conducted using nucleic acid ligands derived from human ribosomal DNA, whereby one can identify a compound that selectively modulates formation of a nucleolin/nucleic acid complex that depends on the conformation of the nucleic acid. Sequences of suitable nucleic acids are shown in the preceding example. […] A “+” represents the weakest nucleolin affinity and a “++++” represents the strongest nucleolin affinity. […] Using nucleic acids such as these having known conformational properties, one can identify a compound such as the compounds described herein that selectively interferes with binding of nucleolin to a particular quadruplex structure.

Molecule | Affinity for Nucleolin
6183NT: DNA oligonucleotide from human rDNA non-template strand, GGGTCGGGGGCGGTGGTGGGCCCGCGGGGG (DNA, backbone and methylation of C not given here) [Example 6183NT] | +
7733T: DNA oligonucleotide from human rDNA template strand, GGGAGGGGCACGGGCCGGGGGCGGGACGGG (DNA, backbone and methylation of C not given here) [Example 7733T] | +
8511NT: DNA oligonucleotide from human rDNA non-template strand, GGGGGTGGGCGGGCGGGGCCGGGGGTGGG (DNA, backbone and methylation of C not given here) [Example 8511NT] | ++++
8749NT: DNA oligonucleotide from human rDNA non-template strand, GGGAGGGCGCGCGGGTCGGGG (chemistry not given here) [Example 8749NT] | +
11028NT: DNA oligonucleotide from human rDNA non-template strand, GGGGCGCGGCGGGGGGAGAAGGGTCGGGGCGGCAGGGG (DNA, backbone and methylation of C not given here) [Example 11028NT] | +
B1 | ++++
